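Following 48 hours of exposure in 96-well plates, responses at five concentrations were used to interpolate endpoints linearly. The concentration for full growth arrest is given as TGI.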
What was measured:
Experiment in all cases: NCI anticancer screen, dose series, 48 h
[1] = tested on: SR leukemia
[2] = tested on: EKVX NSCLC
[3] = tested on: SN12C renal
[4] = tested on: OVCAR-8 ovarian
[5] = tested on: ACHN renal
[6] = tested on: HOP-62 NSCLC
[7] = tested on: HL-60(TB) leukemia
[8] = tested on: HCC-2998 colon
[9] = tested on: M14 melanoma
[10] = tested on: SK-OV-3 ovarian
[11] = tested on: LXFL 529 NSCLC
[12] = tested on: DLD-1 colon
[13] = tested on: SNB-75 CNS
[14] = tested on: SF-539 CNS
[15] = tested on: UACC-62 melanoma
[16] = tested on: OVCAR-4 ovarian
[17] = tested on: SK-MEL-28 melanoma
[18] = tested on: SK-MEL-2 melanoma
[19] = tested on: NCI-H460 lung
[20] = tested on: SW-620 colon
[21] = tested on: COLO 205 colon
[22] = tested on: SNB-78 CNS
[23] = tested on: UO-31 renal
[24] = tested on: LOX IMVI melanoma
[25] = tested on: M19-MEL melanoma
[26] = tested on: SNB-19 CNS
[27] = tested on: IGROV1 ovarian
[28] = tested on: CAKI-1 renal
[29] = tested on: CCRF-CEM leukemia
[30] = tested on: U251 CNS
[31] = tested on: RXF-631 renal
[32] = tested on: 786-0 renal
[33] = tested on: K-562 leukemia
[34] = tested on: UACC-257 melanoma
[35] = tested on: HOP-92 NSCLC
[36] = tested on: MOLT-4 leukemia
[37] = tested on: SF-268 CNS
[38] = tested on: HT29 colon
[39] = tested on: KM20L2 colon
[40] = tested on: TK-10 renal
[41] = tested on: OVCAR-3 ovarian
[42] = tested on: DMS 273 small cell lung
[43] = tested on: XF 498 CNS
[44] = tested on: OVCAR-5 ovarian
[45] = tested on: RXF 393 renal
[46] = tested on: A549 NSCLC
[47] = tested on: SK-MEL-5 melanoma
[48] = tested on: MALME-3M melanoma
[49] = tested on: HCT-15 colon
[50] = tested on: NCI-H23 lung
[51] = tested on: SF-295 CNS
[52] = tested on: RPMI-8226 leukemia
[53] = tested on: NCI-H226 lung
[54] = tested on: HCT-116 colon
[55] = tested on: A498 renal
[56] = tested on: KM12 colon

Work on COc1cc([C@@H]2c3cc4c(cc3[C@@H](NC(=O)c3cccc(N)c3)C3COC(=O)[C@@H]32)OCO4)cc(OC)c1O (stereo partly specified) yielded a TGI [1] of 0.321 µM, a TGI [2] of 15.6 µM and a TGI [3] of 3.78 µM. For the same molecule, the TGI [4] was 14.8 µM, the TGI [5] was 2.4 µM and the TGI [6] was 0.0964 µM. For the same molecule, the TGI [7] was 2.11 µM, the TGI [8] was 7.23 µM and the TGI [9] was > 20.4 µM. For the same molecule, the TGI [10] was > 22.9 µM, the TGI [11] was > 100 µM and the TGI [12] was > 67.2 µM. It also gave a TGI [13] of 11.6 µM, a TGI [14] of 1.53 µM and a TGI [15] of 7.94 µM. For the same molecule, the TGI [16] was > 66.9 µM, the TGI [17] was > 88.5 µM and the TGI [18] was 10.1 µM. For the same molecule, the TGI [19] was 1.97 µM, the TGI [20] was 35 µM and the TGI [21] was > 100 µM. For the same molecule, the TGI [22] was > 84.4 µM, the TGI [23] was 26.1 µM and the TGI [24] was 12.7 µM. The TGI [25] was > 100 µM, the TGI [26] was 31.6 µM and the TGI [27] was > 41.6 µM. For the same molecule, the TGI [28] was 6.18 µM, the TGI [29] was > 33 µM and the TGI [30] was 4.51 µM. For the same molecule, the TGI [31] was 18.5 µM, the TGI [32] was 2.3 µM and the TGI [33] was > 49.3 µM. The TGI [34] was > 100 µM, the TGI [35] was 15.9 µM and the TGI [36] was 2.33 µM. It also gave a TGI [37] of 13.9 µM, a TGI [38] of 21.3 µM and a TGI [39] of 36 µM. The TGI [40] was 18.4 µM, the TGI [41] was 30.2 µM and the TGI [42] was 12.1 µM. It also gave a TGI [43] of 25 µM, a TGI [44] of 12.8 µM and a TGI [45] of 23.5 µM. It also gave a TGI [46] of 2.55 µM, a TGI [47] of 6.16 µM and a TGI [48] of 8.87 µM. The TGI [49] was 19.7 µM, the TGI [50] was 2.22 µM and the TGI [51] was 5.13 µM. For the same molecule, the TGI [52] was 18.1 µM, the TGI [53] was 1.62 µM and the TGI [54] was > 42.4 µM. The TGI [55] was 8.08 µM and the TGI [56] was 15 µM.

From PubChem BioAssay (NCI)
